Measured values: patent publication US9296741B2, “Bromodomain inhibitors” (priority 2012, dated 2016)
Like-named read-outs stand apart in the source and are kept apart here. Marks after values point to notes of the source that are not given here.

Columns and labels:
[1] = molecular target: human BRD4 first bromodomain (BDI_K57-E168) (Homo sapiens (Human), UniProt O60885); test: TR-FRET bromodomain binding assay, BRD4 first bromodomain
[2] = test system: breast cancer cell line MX-1; test: MX-1 cell line proliferation assay; type: cell-based, human; conditions: Homo sapiens, MX1, 72 h; MX-1 cells, 3-day proliferation, Cell Titer Glo; read-out: Cellular proliferation: EC50
[3] = Human liver microsome stability assay; type: in vitro ADME; conditions: both sexes, human, microsomes, pH 7.4
[4] = Rat liver microsome stability assay; type: in vitro ADME; conditions: rat liver microsomes (male Sprague-Dawley), 0.5 μM test compound, 0.25 mg/mL microsomal protein, pH 7.4, 37° C.; read-out: Stability in rat liver microsomes (t1/2 in minutes)
[5] = Mouse liver microsome stability assay; type: in vitro ADME; conditions: male, CD1, mouse, microsomes, pH 7.4
[6] = test system: LPS induced IL-6 production; test: LPS (lipopolysaccharide) induced IL-6 production mouse assay; type: in vivo; conditions: Mus musculus, read-out: Inhibition of LPS induced IL-6 production in Mice, % inhibition at 3 mg/kg; 3 mg/kg oral, 1 h before LPS; serum IL-6 2 h after LPS
[7] = test system: MX-1 human breast cancer xenograft tumors; test: Xenograft tumor growth inhibition assay, MX-1; type: in vivo, mouse
[8] = test system: HT1080 human cancer cell xenograft; test: Xenograft efficacy study, HT1080; type: in vivo, mouse; conditions: PO, QDx14, vehicle H
[9] = test system: MV4-11 human cancer cell xenograft; test: Xenograft efficacy study, MV4-11; type: in vivo, mouse; conditions: PO, QDx21, vehicle D
[10] = test system: SKM1 human cancer cell xenograft; test: Xenograft efficacy study, SKM1; type: in vivo, mouse; conditions: PO, QDx21, vehicle A
[11] = test system: rat collagen induced arthritis (rCIA) paw swelling
[12] = test system: OPM-2 human multiple myeloma xenograft tumors; test: animal or person; conditions: Mus musculus; for change in vivo at 0.5 mg/kg / inhibition in vivo at 0.5 mg/kg: 0.5 mg/kg/day; for change in vivo at 1 mg/kg / inhibition in vivo at 1 mg/kg: 1 mg/kg/day
[13] = test system: rat collagen induced arthritis (rCIA) paw swelling; test: animal or person; conditions: po, read-out: ED50, inhibition of inflammation in the arthritic paw
[14] = MX-1, 0.3 mg/kg/day, PO, QD, vehicle F
[15] = MX-1, 1 mg/kg/day, PO, QD, vehicle F
[16] = MX-1, 3 mg/kg/day, PO, QD, vehicle F
[17] = OPM-2, po, read-out: % TGI (tumor growth inhibition), OPM-2, PO, QDx21, vehicle A

What does the source list for CCS(=O)(=O)Nc1ccc(Oc2ccc(F)cc2F)c(-c2cn(C)c(=O)c3[nH]ccc23)c1 [Example 36, N-[4-(2,4-difluorophenoxy)-3-(6-methyl-7-oxo-6,7-dihydro-1H-pyrrolo[2,3-c]pyridin-4-yl)phenyl]ethanesulfonamide]?
Ki [1]: 3.5 nM; EC50 [2]: 17.4 nM; half-life at 0.5 μM [3]: > 2 h; half-life at 0.5 μM [4]: > 2 h; half-life at 0.5 μM [5]: 0.683 h; inhibition in vivo at 3 mg/kg [6]: 78%; % TGD (tumor growth delay) [7, 14]: 40%; % TGI (tumor growth inhibition) [7, 14]: 43** %; % removed from study [7, 14]: 0%; % TGI (tumor growth inhibition) [7, 15]: 60*** %; % removed from study [7, 15]: 0%; % TGI (tumor growth inhibition) [7, 16]: 76*** %; % removed from study [7, 16]: 0%; % TGI (tumor growth inhibition) ([7]; MX-1 xenograft, 0.3 mg/kg/day PO, QDx14, based on day 27): 43** %; % TGI (tumor growth inhibition) ([7]; MX-1 xenograft, 1 mg/kg/day PO, QDx14, based on day 27): 60*** %; % TGI (tumor growth inhibition) ([7]; MX-1 xenograft, 3 mg/kg/day PO, QDx14, based on day 27): 76*** %; % TGD (tumor growth delay) ([8]; 0.3 mg/kg/day): −1%; % TGI (tumor growth inhibition) ([8]; 0.3 mg/kg/day): 26%; % removed from study ([8]; 0.3 mg/kg/day): 30%; % TGD (tumor growth delay) ([8]; 1 mg/kg/day): 3%; % TGI (tumor growth inhibition) ([8]; 1 mg/kg/day): 41* %; % removed from study ([8]; 1 mg/kg/day): 10%; % TGD (tumor growth delay) ([8]; 3 mg/kg/day): 46*** %; % TGI (tumor growth inhibition) ([8]; 3 mg/kg/day): 47** %; % removed from study ([8]; 3 mg/kg/day): 10%; % TGD (tumor growth delay) ([9]; 0.2 mg/kg/day): 16*** %; % TGI (tumor growth inhibition) ([9]; 0.2 mg/kg/day): 22* %; % removed from study ([9]; 0.2 mg/kg/day): 0%; % TGD (tumor growth delay) ([9]; 2 mg/kg/day): 94* %; % TGI (tumor growth inhibition) ([9]; 2 mg/kg/day): 81*** %; % removed from study ([9]; 2 mg/kg/day): 0%; % TGD (tumor growth delay) ([10]; 0.2 mg/kg/day): 93%; % TGI (tumor growth inhibition) ([10]; 0.2 mg/kg/day): 41* %; % removed from study ([10]; 0.2 mg/kg/day): 0%; % TGD (tumor growth delay) ([10]; 2 mg/kg/day): 721*** %; % TGI (tumor growth inhibition) ([10]; 2 mg/kg/day): 86** %; % removed from study ([10]; 2 mg/kg/day): 0%; maximum plasma concentration at the ED50 ([11]; female, Lewis, rat, in vivo): 0.0068 µg/mL; maximum plasma concentration at the ED80 ([11]; female, Lewis, rat, in vivo): 0.0223 µg/mL; AUC of Paw Swelling, MEAN ([11]; rCIA, dosed at 0.03 mg/kg orally once daily day 10-17): 4.19 mL·days; AUC of Paw Swelling, MEAN ([11]; rCIA, dosed at 0.1 mg/kg orally once daily day 10-17): 3.66* ml-day; AUC of Paw Swelling, MEAN ([11]; rCIA, dosed at 0.3 mg/kg orally once daily day 10-17): 1.84** ml-day; AUC of Paw Swelling, MEAN ([11]; rCIA, dosed at 1.0 mg/kg orally once daily day 10-17): 0.70** ml-day; ED80, inhibition of inflammation in the arthritic paw ([11]; rCIA, oral once daily): 0.69 mg/kg; change in vivo at 0.5 mg/kg ([12]; OPM-2, ip, read-out: % TGD (tumor growth delay), OPM-2, IP, QDx21, vehicle F): 52%; change in vivo at 1 mg/kg ([12]; OPM-2, ip, read-out: % TGD (tumor growth delay), OPM-2, IP, Q4DX3, vehicle F): 80%; inhibition in vivo at 0.5 mg/kg ([12]; OPM-2, ip, read-out: % TGI (tumor growth inhibition), OPM-2, IP, QDx21, vehicle F): 49%; inhibition in vivo at 1 mg/kg ([12]; OPM-2, ip, read-out: % TGI (tumor growth inhibition), OPM-2, IP, Q4DX3, vehicle F): 61%; inhibition in vivo at 1 mg/kg ([12]; OPM-2, iv, read-out: % TGI (tumor growth inhibition), OPM-2, IV, Q4Dx3, vehicle C): 69%; inhibition in vivo at 3 mg/kg ([12]; OPM-2, po, 744 h, read-out: % TGI (tumor growth inhibition), OPM-2 xenograft, 3 mg/kg/day PO, QDx14, based on day 31): 90%; change in vivo at 0.5 mg/kg ([12]; OPM-2, po, read-out: % TGD (tumor growth delay), OPM-2, PO, QDx21, vehicle A): 101%; change in vivo at 1 mg/kg ([12]; OPM-2, po, read-out: % TGD (tumor growth delay), OPM-2, PO, BIDx21, vehicle A): 140%; change in vivo at 3 mg/kg ([12]; OPM-2, po, read-out: % TGD (tumor growth delay), OPM-2, 3 mg/kg/day, PO, QDx14, vehicle A): 21%; change in vivo at 3 mg/kg ([12]; OPM-2, po, read-out: % TGD (tumor growth delay), OPM-2, 3 mg/kg/day, PO, QDx21, vehicle A): 131%; change in vivo at 6 mg/kg ([12]; OPM-2, po, read-out: % TGD (tumor growth delay), OPM-2, 6 mg/kg/day, PO, Q2D x21 d, vehicle A): 84%; change in vivo at 7 mg/kg ([12]; OPM-2, po, read-out: % TGD (tumor growth delay), OPM-2, 7 mg/kg/day, PO, QD(3 on 4 off)x3, vehicle A): 97%; change in vivo at 10.5 mg/kg ([12]; OPM-2, po, read-out: % TGD (tumor growth delay), OPM-2, 10.5 mg/kg/day, PO, QD(2 on 5 off)x3, vehicle A): 94%; change in vivo at 3 mg/kg ([12]; OPM-2, po, read-out: % TGD (tumor growth delay), OPM-2 xenograft, 3 mg/kg/day PO, QDx14, endpoint of 1000 mm^3): 78%; inhibition in vivo at 0.5 mg/kg [12, 17]: 75%; inhibition in vivo at 1 mg/kg ([12]; OPM-2, po, read-out: % TGI (tumor growth inhibition), OPM-2, PO, BIDx21, vehicle A): 74%; inhibition in vivo at 1 mg/kg [12, 17]: 75%; inhibition in vivo at 3 mg/kg ([12]; OPM-2, po, read-out: % TGI (tumor growth inhibition), OPM-2, 3 mg/kg/day, PO, QDx14, vehicle A): 90%; inhibition in vivo at 3 mg/kg ([12]; OPM-2, po, read-out: % TGI (tumor growth inhibition), OPM-2, 3 mg/kg/day, PO, QDx21, vehicle A): 88%; inhibition in vivo at 6 mg/kg ([12]; OPM-2, po, read-out: % TGI (tumor growth inhibition), OPM-2, 6 mg/kg/day, PO, Q2D x21 d, vehicle A): 82%; inhibition in vivo at 7 mg/kg ([12]; OPM-2, po, read-out: % TGI (tumor growth inhibition), OPM-2, 7 mg/kg/day, PO, QD(3 on 4 off)x3, vehicle A): 81%; inhibition in vivo at 10.5 mg/kg ([12]; OPM-2, po, read-out: % TGI (tumor growth inhibition), OPM-2, 10.5 mg/kg/day, PO, QD(2 on 5 off)x3, vehicle A): 75%; ED50 [13]: 0.21 mg/kg
